Source: patent publication US20130237582A1, “PHARMACEUTICAL COMBINATION OF PACLITAXEL AND A CDK INHIBITOR” (Piramal Enterprises Limited, priority 2010, published 2013)

Assays:
MCF-7 [1] = assay: Cell cycle progression and apoptosis by flow cytometry (sub-G1); assay type: cell-based, human; conditions: 4.5 μM
Method: Time dependent effect of Compound A on cell cycle progression and apoptosis was evaluated in two breast cancer cell lines. The asynchronous human breast cancer cell lines MCF-7 (Her low, ER+, PR+, BRCA+/−allelic loss) and MDA-MB-231 cells were seeded in […] tissue culture flask at a density of 0.5×10^6 cells per flask in RPMI 1460 with 10% FCS. After 24 h, cells were treated with 4.5 μM of Compound A for 0, 24, 48 and 72 h. Both detached and adherent cells were harvested (trypsinised) at different time points as mentioned in Table 3. After washing in phosphate buffered saline (PBS), cells were fixed in ice-cold 70% ethanol and stored at −20° C. until further analysis.
Before analysis, cells were washed twice with PBS to remove the fixative and re-suspended in PBS containing 50 μg/mL propidium iodide and 50 μg/mL RNaseA. After incubation at room temperature (20-35° C.) for 20 min, cells were analyzed using flow cytometry. A Becton Dickinson FACS Calibur flow cytometer (BD, USA) was used for these studies. The argon ion laser set at 488 nm was used as an excitation source. Cells with DNA content between 2n and 4n were designated as being in G1, S and G2/M phases of the cell cycle, as defined by the level of red fluorescence. […] The number of cells in each cell cycle compartment was expressed as a percentage of the total number of cells present. The results are shown in Table 3 and graphically presented in FIG. 3A (MCF-7 cell lines) and FIG. 3B (MDA-MB-231 cell lines).

U251 pGL3 = assay: Control luciferase reporter cell line (U251 pGL3); assay type: cell-based; conditions: normoxia
Excerpt: 1) U251 HRE: The genetically engineered cells U251 HRE which stably express a recombinant vector in which the Luciferase reporter gene is under control of three copies of a canonical HRE. 2) U251 pGL3: A control cell line contains the firefly Luciferase reporter gene under control of the constitutively active SV40 promoter and enhancer that helps to exclude compounds that inhibit Luciferase expression in a nonspecific and/or HIF-1-independent fashion. These cells expressed high basal levels of Luciferase in normoxic conditions and slightly lower levels in hypoxic conditions.
U251 HRE cells were inoculated into 96 well white flat-bottomed plates at 10000-15000 cells/well in a volume of 180 μL and incubated for 24 h at 37° C., 5% CO2, and ambient O2. Compound A was tested at various concentrations viz. […] After 20 h incubation, the plates were removed and incubated at room temperature, 5% CO2, and ambient O2 for 1.5 h. 40 μL of Bright Glo Luciferase reagent (Promega™, USA) was added and after 3 min, luminescence was measured using a Polar Star Plate Reader (USA) in luminescence mode. Appropriate control cells (U251 pGL3) were treated identically, except that they were treated at 37° C., 5% CO2 and ambient O2. Compound toxicity was assayed using the MTS assay.

PARP = target: T1, PARP (Homo sapiens, UniProt P09874); assay: PARP enzyme activity measured by PAR polymers (Western blot), MDA-MB-231; assay type: cell-based; conditions: 1.5 μM and 5 μM, 24 h
T1 construct: endogenous in cells; host or cells: MDA-MB-231; MDA-MB-468
Method: To study PARP enzyme activity, PAR polymer formation was measured. MDA-MB-231 and MDA-MB-468 cells were seeded in RPMI 1460 medium with 10% FCS in […] tissue culture flask and incubated for 24 h. These cells were treated at 1.5 μM and 5 μM of Compound A for 24 h. The cells were harvested (trypsinised) and lysed using lysis buffer. Western blotting (Molecular Cancer Therapeutics, 2007, 6, 918-925) was done with specific antibody to PAR.
Correlation of PARP activity and cell cycle proteins cyclin D1, total Rb and pRb 780 were studied in two TNBC cell lines viz. MDA-MB-468 and MDA-MB-231. MDA-MB-231 and MDA-MB-468 cells were seeded in RPMI 1460 medium with 10% FCS in […] tissue culture flask and incubated for 24 h. These cells were treated at 1.5 μM and 5 μM Compound A for 24 h. The cells were harvested (trypsinised) and lysed using lysis buffer. Western blotting was carried out (Molecular Cancer […], 2007, 6, 918-925) using specific antibody to PAR, PARP, cyclin D1, CDK4 and pRb Ser 780.

[2] = test system: all the breast cancer cell lines; assay: PI assay, summary over the breast cancer cell line panel; assay type: cell-based; conditions: Homo sapiens; nine breast cancer cell lines of Table 1B; read-out: IC50 range over all the breast cancer cell lines
Method: The propidium iodide fluorescence assay (PI) was carried out according to the procedure mentioned in Anticancer Drugs, 1995, 6, 522-32. The assay was developed to characterize the in vitro growth of human tumor cell lines as well as to test the cytotoxic activity of the compounds. Propidium iodide (PI) was used as a dye, which penetrates only damaged cellular membranes. Intercalation complexes are formed by PI with double-stranded DNA, which effect an amplification of the fluorescence. After freezing the cells at −20° C. for 24 h, PI had access to total DNA leading to total cell population counts. Background readings were obtained from cell-free wells containing media and propidium iodide. The human breast cancer cell lines (i.e. […] Control wells were treated with vehicle (DMSO). At the end of the incubation periods, the plates were assayed using PI cytotoxicity assay protocol. Percent cytoxicity was calculated at various drug concentrations and from the graph plotted the IC50 values were determined.

[3] = test system: MDA-MB-231, MDA-MB-468 and MCF-7 cell lines; assay: Clonogenic assay or colony forming assay; assay type: cell-based, human; conditions: IC10, IC30, IC50 for 48 h, then 14 days drug-free
Method: MDA-MB-231, MDA-MB-468 and MCF-7 cell lines were seeded in RPMI 1460 with 10% FCS, at a density of 1500 cells/well in six well plates. […] The medium was removed at the end of the treatment and incubated in fresh medium (without drug) for 14 days. After 14 days the medium was aspirated and colonies were fixed with methanol and acetic acid mixture in the proportion of 2:1, rinsed with water and the fixation procedure was repeated. The plates were dried and colonies stained with 0.1% crystal violet for 5 min. The wells were finally rinsed with water and dried.

MCF-7 [4] = assay: Multicellular tumor spheroid (MCTS, 3D) formation; assay type: cell-based, human; conditions: MCF-7 MCTS
Method: The assay was carried out according to the method disclosed in Methods in Molecular Medicine, 2007, 140, 141-151.
The multicellular tumor spheroid (MCTS) model is one of the best-described 3D in vitro tumor model systems, which depicts many of the characteristics of tumor tissue and allows reproducible experiments, offering an excellent in vitro screening system. MCTS were propagated using the hanging drop method. Briefly, the cell monolayer was detached using trypsin-EDTA. Cell count was adjusted and 20 μL hanging droplets containing 1,000 cells/drop, were made in bacterial grade petridishes. These hanging drops were incubated for 24 h at 37° C. in a humidified atmosphere of 5% CO2. The MCTS thus generated were cultured in the presence or absence of varying concentrations (0.3 μM to 30 μM) of Compound A for 72 h.

T1 sequence (P09874 2-1014 limits assumed): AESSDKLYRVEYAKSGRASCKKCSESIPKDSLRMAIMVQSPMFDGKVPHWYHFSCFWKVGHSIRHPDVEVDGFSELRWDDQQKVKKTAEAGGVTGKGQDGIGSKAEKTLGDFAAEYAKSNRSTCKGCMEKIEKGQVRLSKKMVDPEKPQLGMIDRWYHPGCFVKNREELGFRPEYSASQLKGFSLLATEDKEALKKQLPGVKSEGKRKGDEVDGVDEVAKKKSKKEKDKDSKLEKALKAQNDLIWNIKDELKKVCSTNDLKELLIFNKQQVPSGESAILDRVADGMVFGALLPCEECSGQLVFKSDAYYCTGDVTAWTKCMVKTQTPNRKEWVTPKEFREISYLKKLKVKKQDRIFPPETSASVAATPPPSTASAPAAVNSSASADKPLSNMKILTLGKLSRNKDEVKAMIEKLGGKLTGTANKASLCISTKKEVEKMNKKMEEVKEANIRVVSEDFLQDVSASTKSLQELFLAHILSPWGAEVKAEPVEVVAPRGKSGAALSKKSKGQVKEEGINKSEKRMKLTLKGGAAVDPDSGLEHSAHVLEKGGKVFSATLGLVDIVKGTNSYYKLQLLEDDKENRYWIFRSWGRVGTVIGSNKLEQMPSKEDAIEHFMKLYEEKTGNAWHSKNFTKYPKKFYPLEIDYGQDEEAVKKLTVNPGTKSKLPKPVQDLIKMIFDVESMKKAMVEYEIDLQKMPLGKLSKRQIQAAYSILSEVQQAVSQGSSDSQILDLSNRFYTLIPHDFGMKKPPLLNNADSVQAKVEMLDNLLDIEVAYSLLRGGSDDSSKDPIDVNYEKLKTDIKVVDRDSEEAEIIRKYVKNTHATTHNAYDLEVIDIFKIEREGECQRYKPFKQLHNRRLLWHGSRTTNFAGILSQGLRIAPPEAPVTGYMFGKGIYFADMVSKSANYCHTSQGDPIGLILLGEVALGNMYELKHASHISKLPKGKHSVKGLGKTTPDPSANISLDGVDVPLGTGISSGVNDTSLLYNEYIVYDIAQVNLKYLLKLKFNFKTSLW

Q: Which results are given for `CN1CC[C@@H](c2c(O)cc(O)c3c(=O)cc(-c4ccccc4Cl)oc23)[C@@H]1CO.Cl` [Compound A, (+)-trans-2-(2-Chloro-phenyl)-5,7-dihydroxy-8-(2-hydroxymethyl-1-methyl-pyrrolidin-3-yl)-chromen-4-one hydrochloride]?
A: % Apoptosis (MCF-7 [1]; 0 h): 1%; % Apoptosis (MCF-7 [1]; 24 h): 52%; % Apoptosis (MCF-7 [1]; 48 h): 80%; % Apoptosis (MCF-7 [1]; 72 h): 88%; luciferase expression in control cell line (U251 pGL3): did not inhibit the luciferase expression; PARP enzyme activity (PAR polymer formation) (PARP): inhibits PARP enzyme activity; IC50 [2]: 300 to 1000 nM; colony forming potential [3]: inhibit the colony forming potential in a dose dependent manner; concentration from which spheroid formation was arrested (MCF-7 [4]; 0.3 μM to 30 μM, 72 h): ≥ 3 µM; size of MCTS formed (MCF-7 [4]; 1 μM): smaller as compared to control
